Test: Microsomal stability assay (pooled male and female HLM, LC-MS)
Type: in vitro ADME, human
Conditions: HLM, incubation time of 120 min
Procedure: To this end, the compounds were incubated with pooled male and female HLM for 120 min, and the compound degradation as well as the formation of metabolites was monitored by liquid chromatography-mass spectrometry (LC-MS) analysis.
The inhibitory activity of the final compounds on GSK-3β was determined by the Promega ADP-Glo™ Kinase assay (Promega Corporation, Madison, WI 53711, USA), which was performed in white, non-treated 384-well plates (Corning). The experiments were carried out as quadruplicates using a concentration of 0.58 ng/µL of recombinant human GSK-3β, 0.2 µg/µL GSK-3 substrate G50-58 […]
(sequence: […](pS)EDEEE) and 25 µM ATP in the presence of serial dilutions of the final compounds. In addition, two control experiments with uninhibited kinase and two blank experiments with ATP/substrate solution were performed.
In detail, the kinase was pre-incubated with the final compounds for 10 min at rt. Then substrate/ATP was added to start the reaction, which was run for 1 h at rt. The next steps consisted of addition of ADP-Glo™ reagent (5 µL, then 1 h incubation) and Kinase detection reagent (10 µL, then 30 min incubation). Finally, the luminescence was measured on a FilterMax F5 microplate reader (Molecular Devices) (integration time 500 ms). GraphPad Prism v. 7.03. was used to normalize the raw data to the values of the control and blank experiments and generate absolute IC 50 values.
2. Interaction Frequencies of (R)-2 and (R)-28 in the 1 µs Molecular Dynamics Simulations
Figure S1. Observed interactions of (R)-2 (a) and (R)-28 (b) in the MD simulations. Both ligands […]
mediates water-bridged interactions to Asp200 or Ser66. Interactions with >10% frequency are shown.
3. Microsomal Stability Assay
Pooled male and female human liver microsomes (HLMs) (Lot: SLBQ7487V) were purchased from Merck (Schnelldorf, Germany). […]
The metabolite formation was analyzed with an Alliance 2695 Separations Module (Waters […]
The absorbance was read at 570 nm using a Spectramax i5 microplate reader. Results were expressed as percentage of control.

With CCC(=O)N1CCC[C@@H](N(C)c2ncnc3[nH]c4cc(Br)ccc4c23)C1 [Compound (R)-28, (R)-1-(3-((7-bromo-9H-pyrimido[4,5-b]indol-4-yl)(methyl)amino)piperidin-1-yl)propan-1-one] the “unchanged inhibitor detected after incubation” value was roughly 70%.

— PMC7659979, “Discovery and Evaluation of Enantiopure 9H-pyrimido[4,5-b]indoles as Nanomolar GSK-3β Inhibitors with Improved Metabolic Stability” (International Journal of Molecular Sciences, 2020)
